We go through 10 compounds from patent US4490527A, “Benzo-fused heterocyclic anti-ulcer agents” (American Home Products Corporation, priority 1983, dated 1984).

Series [1] deals with gastric acid secretion. Put plainly: gastric secretion in the rat, modified Shay procedure of pylorus ligation. As to conditions: intraduodenal, 4 h, i.d., four hours after ligation, read-out: % Inhibition (of acid output). Type of series: in vivo. The method, then:
The procedure for testing gastric secretion in the rat, a modification of the procedure of Shay et al., Gastroenterology, 26, 906-13 (1954) is carried out as follows: Male Charles River rats weighing 200-300 grams are deprived of food but not water for 24 hours prior to use. Water is, however, withheld during the experiment. The rats are weighed, anesthetized, and the pylorus ligated according to the method of Shay et al. Treatment or vehicle control is then administered interduodenally (i.d.). Rats are housed 2/cage and sacrificed with CO2 four hours after ligation. The stomachs are removed, rinsed, and contents emptied into a graduated centrifuge tube. The tubes are centrifuged for 20 minutes at 2,000 RPM and the volume of gastric juice recorded. Any samples obviously contaminated by feces, food or hemolysis are eliminated. An aliquot of each is frozen for later analysis of Na^+, K^+ and Cl^- concentration. The pH is measured and 1 ml. of gastric juice is titrated with 0.1N NaOH to a pH of 7.0-7.4. Titratable acid output is calculated in microequivalents and the percent inhibition of acid output is calculated as follows: [formula]

Another series has as its target H2 histamine receptors (Cavia porcellus, UniProt P47747). The series can be described thus: cell-based. As to conditions: vs histamine dose-response, 32° C., pH 7.4. On the set-up: species or system guinea pig.
Series [2] has as its system gastric acid secretion. Put plainly: inhibition of secretion of acidic gastric juice in dogs (Pavlov gastric pouch, fed). It is filed as in vivo, dog (beagle). As to conditions: for ED50: Canis lupus familiaris, po, read-out: ID50 (dose at which there is obtained a 50% inhibition of the total gastric acid output). The method, then:
The procedure for testing the ability of the compounds of the invention to inhibit the secretion of acidic gastric juice in dogs is as follows: A female pure bred beagle (7-10 kg) having Pavlov gastric pouches is fasted overnight with water ad lib. The animal is orally dosed and thirty minutes later it is fed to induce gastric acid secretions. Gastric acid samples are then collected every 15 minutes. The volume of each sample is measured and aliquots are titrated to neutrality with 0.1N NaOH to determine acid concentration.

The conditions of series [3]: limitation noted in patients; cited from earlier work.
The mark [4] stands for this setting: 30 min after addition, results of three experiments, read-out: pA2 Value (apparent dissociation constant of the H2 antagonist) (converted).
Setting [5] is: orally dosed, fed thirty minutes later.
[6] abbreviates: marked *, result of only one experiment, read-out: KB value.

“Also recorded” adds a separate entry of the source. Counter-ions that a name gives are not always drawn. Like-named read-outs stand apart in the source and are kept apart here.

Chain of H2 histamine receptors (P47747 whole entry): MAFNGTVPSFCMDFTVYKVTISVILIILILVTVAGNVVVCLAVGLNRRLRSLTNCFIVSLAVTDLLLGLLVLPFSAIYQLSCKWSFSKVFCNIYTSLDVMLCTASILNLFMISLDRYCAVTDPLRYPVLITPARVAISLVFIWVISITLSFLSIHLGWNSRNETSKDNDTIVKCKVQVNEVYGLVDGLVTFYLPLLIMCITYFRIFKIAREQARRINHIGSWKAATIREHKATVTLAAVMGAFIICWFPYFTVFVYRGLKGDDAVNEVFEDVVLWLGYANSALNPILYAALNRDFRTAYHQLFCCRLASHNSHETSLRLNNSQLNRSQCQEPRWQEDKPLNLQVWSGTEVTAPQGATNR
Protocol for H2 histamine receptors: The guinea pig heart atrium test is carried out as follows:
A guinea pig right atrium is suspended at 1 g. tension (isometric) in a thermostatically controlled (32° C.) tissue bath (10 ml) containing oxygenated (95% O2 ; 5% CO2) Krebs-Haenseleit buffer (pH 7.4). The tissue is allowed to stabilize over 1 hour. Individual contractions are recorded with a force-displacement transducer through a strain gauge coupler. A control dose-response curve to histamine in the above described tissue bath is obtained after which the tissue is washed 3 times and allowed to re-equilibrate to basal rate. The test compound is added to the tissue bath at the desired final concentration. Thirty minutes after addition of the compound, a fresh histamine dose response curve is again obtained. Then the response to histamine in the presence of antagonist is compared to the histamine control response. This procedure is repeated, using fresh tissues, for each concentration of antagonist tested. […] Cimetidine is used as the standard for this test.

For the compound `CN(C)Cc1ccc(CSCCNC2=NS(=O)(=O)c3ccccc32)o1` [Example 1, N-[2-[[[5-[(dimethylamino)methyl]2-furanyl]methyl]thio]ethyl]-1,2-benzisothiazol-3-amine 1,1-dioxide], the inhibition in vivo at 4 mg/kg in the series on gastric acid secretion [1] is 79%. The Kb on H2 histamine receptors (setting [4]) is 100 nM. Also, in the series with gastric acid secretion [2] (setting [5]), the ED50 was 0.8 mg/kg.
For the compound `CCCN(CCC)Cc1cccc(OCCCNC2=NS(=O)(=O)c3ccccc32)c1.Cl` [Example 18, N-[3-[3-[(dipropylamino)methyl]phenoxy]propyl]-1,2-benzisothiazol-3-amine 1,1-dioxide, hydrochloride], in the series on gastric acid secretion [1], the inhibition in vivo at 8 mg/kg turned out to be 67%, the inhibition in vivo at 16 mg/kg stood at 89% and the inhibition in vivo at 32 mg/kg amounted to 90%. Further, on H2 histamine receptors (setting [4]), the Kb was 15.8 nM. For the same compound, the ED50 with gastric acid secretion [2] (setting [5]) turned out to be 1.2 mg/kg.
As to `O=S1(=O)N=C(NCCCOc2cccc(CN3CCCC3)c2)c2ccccc21` [Example 20, N-[3-[3-(1-pyrrolidinylmethyl)phenoxy]propyl]-1,2-benzisothiazol-3-amine 1 ,1-dioxide, hydrochloride, 1/3 hydrate], the inhibition in vivo at 2 mg/kg in the series with gastric acid secretion [1] (Dose 2 mg/kg) stood at 50%. At H2 histamine receptors (setting [4]), the Kb was 25.1 nM. In addition, the ED50 in the series on gastric acid secretion [2] (setting [5]) was 1.4 mg/kg.
Turning to `Cl.O=S1(=O)N=C(NCCCOc2cccc(CN3CCCCCC3)c2)c2ccccc21` [Example 24, N-[3-[3-[(hexahydro-1H-azepin-1-yl)methyl]phenoxy]-propyl]-1,2-benzisothiazol-3-amine 1,1-dioxide, hydrochloride], in the series on gastric acid secretion [1], the inhibition in vivo at 8 mg/kg was 50%. For the same compound, the Kb at H2 histamine receptors (setting [4]) is 5.75 nM. In the series with gastric acid secretion [2] (setting [5]), the ED50 worked out at 1.2 mg/kg.
With `CCCCN(C)Cc1cccc(OCCCNC2=NS(=O)(=O)c3ccccc32)c1` [Example 36, N-[3-[3-[(butylmethylamino)methyl]phenoxy]propyl]-1,2-benzisothiazol-3-amine 1,1-dioxide], the inhibition in vivo at 32 mg/kg in the series with gastric acid secretion [1] was 84%. Besides, the Kb on H2 histamine receptors (setting [6]) was determined as 48 nM.
Consider `Cl.O=S1(=O)N=C(NCCCOc2ccc(CN3CCCCC3)cc2)c2ccccc21` [Example 38, N-[3-[4-[(1-piperidinyl)methyl]phenoxy]propyl]-1,2-benzisothiazol-3-amine 1,1-dioxide, hydrochloride], for which, in the series on gastric acid secretion [1], the inhibition in vivo at 1 mg/kg turned out to be 34%, the inhibition in vivo at 4 mg/kg is 52% and the inhibition in vivo at 16 mg/kg amounted to 93%. The Kb on H2 histamine receptors (setting [4]) is 23.4 nM. Moreover, the ED50 in the series on gastric acid secretion [2] (setting [5]) was found to be 2 mg/kg.
In the case of `CN(C)Cc1ccc(CSCCNC2=NS(=O)(=O)c3cscc32)o1` [Example 39, N-[2-[[[5-[(Dimethylamino)Methyl]-2-Furanyl]Methyl]Thio]Ethyl]Thieno[3,4-d]Isothiazol-3-Amine-1,1-Dioxide], the inhibition in vivo at 16 mg/kg with gastric acid secretion [1] stood at 87%. In addition, the Kb at H2 histamine receptors (setting [6]) came out at 1 nM.
In the case of `O=S1(=O)N=C(NCCCOc2cccc(CN3CCCCC3)c2)c2cscc21` [Example 41], in the series on gastric acid secretion [1] (Dose 0.5 mg/kg), the inhibition in vivo at 0.5 mg/kg came out at 37%. In the series with gastric acid secretion [1], the inhibition in vivo at 1 mg/kg was 84%, the inhibition in vivo at 4 mg/kg came to 87% and the inhibition in vivo at 8 mg/kg was 91%. In addition, the Kb at H2 histamine receptors (setting [6]) was found to be 5.94 nM. Also, in the series with gastric acid secretion [2] (setting [5]), the ED50 amounted to 0.25 mg/kg. In addition, the “reduced gastric acid secretions” value with gastric acid secretion [2] (dose of 1 mg/kg, orally dosed) was found to be 82%.
As for `CN/C(=N/CCSCc1nc[nH]c1C)NC#N` [cimetidine], in series [3], the duration of action result was “short duration of action” and the side effects entry is recorded as “anti-androgenic activity; also recorded: tendency to cause confusional states in elderly patients”. Also, in the series on gastric acid secretion [2], the ED50 came to 6 mg/kg.
Take `CNC(=C[N+](=O)[O-])NCCSCc1ccc(CN(C)C)o1` [ranitidine, reference compound]: the inhibition in vivo at 4 mg/kg with gastric acid secretion [1] amounted to 43%. Further, in the series on gastric acid secretion [2] (setting [5]), the ED50 was found to be 2.3 mg/kg.
